Test results taken from the NIST ThermoML archive (doi:10.1021/acs.jced.9b00062).

Assays:
[1] = Molar enthalpy of transition or fusion; settings: Crystal; DSC
[2] = for vapor or sublimation pressure: Closed cell (Static) method

COc1c(Br)cc(Br)cc1Br [2,4,6-tribromoanisole]
Settings | Molar enthalpy of transition or fusion [kJ/mol]
[1] | 23.9

[2]
Settings | Normal melting temperature [°C] | vapor or sublimation pressure [kPa]
330.66 K, Crystal | – | 0.00284
332.63 K, Crystal | – | 0.00349
334.5 K, Crystal | – | 0.0042
336.57 K, Metastable liquid | – | 0.00889
336.63 K, Crystal | – | 0.0051
338.58 K, Crystal | – | 0.00623
338.61 K, Metastable liquid | – | 0.01033
340.54 K, Crystal | – | 0.00747
340.57 K, Metastable liquid | – | 0.01173
342.54 K, Metastable liquid | – | 0.01369
342.55 K, Crystal | – | 0.00915
344.5 K, Crystal | – | 0.01086
344.5 K, Metastable liquid | – | 0.01549
346.47 K, Crystal | – | 0.01317
346.48 K, Metastable liquid | – | 0.01786
348.43 K, Crystal | – | 0.01563
348.5 K, Metastable liquid | – | 0.02061
350.42 K, Crystal | – | 0.01881
350.43 K, Metastable liquid | – | 0.02345
352.4 K, Crystal | – | 0.0224
352.41 K, Metastable liquid | – | 0.02697
354.32 K, Crystal | – | 0.0266
354.42 K, Metastable liquid | – | 0.03065
356.36 K, Metastable liquid | – | 0.03485
356.37 K, Crystal | – | 0.03175
358.31 K, Metastable liquid | – | 0.03946
360.25 K, Metastable liquid | – | 0.04472
362.27 K, Liquid | – | 0.05049
364.24 K, Liquid | – | 0.05678
366.22 K, Liquid | – | 0.06459
368.15 K, Liquid | – | 0.07257
370.19 K, Liquid | – | 0.08197
372.11 K, Liquid | – | 0.09183
374.05 K, Liquid | – | 0.1023
376.07 K, Liquid | – | 0.1152
377.95 K, Liquid | – | 0.1277
379.95 K, Liquid | – | 0.1426
381.85 K, Liquid | – | 0.1595
383.82 K, Liquid | – | 0.177
385.79 K, Liquid | – | 0.1958
387.78 K, Liquid | – | 0.2203
389.79 K, Liquid | – | 0.2436
391.72 K, Liquid | – | 0.2676
Crystal, DTA | 86.29 | –
